In brackets after ≈: the same amount, converted by molar mass.

The results in this text go back to ChEMBL document CHEMBL6087399, “Extended structure-activity relationship studies of the [1,2,5]oxadiazolo[3,4-b]pyrazine-containing colistin adjuvants” (Bioorg Med Chem Lett, 2025).

Data set [1] in a line: Selectivity index, ratio of GI50 for cytotoxicity against human HepG2 cells to MEC for potentiation of colistin-induced antibacterial activity against Escherichia coli AR-0493 assessed as minimum re-sensitizing concentration. The note with it: read-out: Selectivity Index. The class given is toxicity, cell-based.
Data set [2] concerns Escherichia coli. Description: Antibacterial activity against Escherichia coli AR-0493 by CLSI based susceptibility testing method. The data set is classed as functional.
Data set [3] concerns Escherichia coli. As to the kind of experiment: Potentiation of colistin-induced antibacterial activity against Escherichia coli AR-0493 assessed as minimum re-sensitizing concentration. The note with it: read-out: MEC. The class given is functional.
The nature of data set [4]: Cytotoxicity against human HepG2 cells by Cell Titer Glo assay. The class given is toxicity, cell-based.

As to `Clc1cccc(CNc2nc3nonc3nc2Nc2cccc(Cl)c2)c1`, the selectivity ratio in data set [1] worked out at 7.7. This molecule registered an MIC against Escherichia coli [2] of over 64 µg/mL. The minimal effective concentration with Escherichia coli [3] was 0.5 µg/mL. Besides, in data set [4], it took 3.8 µg/mL (≈ 9.81 µM) to inhibit growth by half (GI50). For `CCCCCCNc1nc2nonc2nc1NCCCCCC`, in that order: 1.2, over 64 µg/mL, 0.5 µg/mL and 0.59 µg/mL (≈ 1.84 µM). Turning to `Clc1cccc(Nc2nc3nonc3nc2NC2CC2)c1`, in the data set on Escherichia coli [3], the minimal effective concentration came to 1 µg/mL. For `CC(C)(C)OC(=O)N1CC(CNc2nc3nonc3nc2Nc2cccc(Cl)c2)C1`, the minimal effective concentration in the data set on Escherichia coli [3] came out at 4 µg/mL. Regarding `c1ccc(CCNc2nc3nonc3nc2NCCc2ccccc2)cc1`, in the data set on Escherichia coli [3], the minimal effective concentration is 2 µg/mL. Consider `CCCCCNc1nc2nonc2nc1NCCCCC`, for which the minimal effective concentration in the data set with Escherichia coli [3] came out at 1 µg/mL.

For `c1ccc2nc(NCCNc3nc4nonc4nc3NCCNc3ccc4ccccc4n3)ccc2c1`, the minimal effective concentration in the data set on Escherichia coli [3] is over 16 µg/mL. In the case of `Clc1cccc(Nc2nc3nonc3nc2NCCNc2ccc3ccccc3n2)c1`, the minimal effective concentration with Escherichia coli [3] worked out at 16 µg/mL.

For the molecule `CC(C)CNc1nc2nonc2nc1Nc1cccc(Cl)c1`, the minimal effective concentration in the data set on Escherichia coli [3] came out at 2 µg/mL.

Regarding `CCCCCCCCCCCCNc1nc2nonc2nc1NCCCCCCCCCCCC`, in the data set with Escherichia coli [3], the minimal effective concentration is over 16 µg/mL.

Consider `CCCCNc1nc2nonc2nc1NCCCC`, for which the minimal effective concentration in the data set with Escherichia coli [3] worked out at 8 µg/mL. On the same count and under the same terms, for `CCCCCCCCCCNc1nc2nonc2nc1NCCCCCCCCCC` the value was over 16 µg/mL.

Consider `FC(F)(F)c1cccc(CNc2nc3nonc3nc2Nc2cccc(Cl)c2)c1`, for which the selectivity ratio in data set [1] amounted to 22. The molecule also yielded an MIC in the data set with Escherichia coli [2] of over 64 µg/mL. In the data set on Escherichia coli [3], the minimal effective concentration is 0.25 µg/mL. In addition, growth in data set [4] was halved (GI50) at 5.5 µg/mL (≈ 13.1 µM). For `Clc1ccc2[nH]cc(CCNc3nc4nonc4nc3NCCc3c[nH]c4ccc(Cl)cc34)c2c1`, the minimal effective concentration with Escherichia coli [3] was over 16 µg/mL. `C1CCC(Nc2nc3nonc3nc2NC2CCCCC2)CC1`: the minimal effective concentration in the data set on Escherichia coli [3] came to 4 µg/mL.

On to `Clc1cccc(Nc2nc3nonc3nc2NC2CCC2)c1`, for which the minimal effective concentration with Escherichia coli [3] came to 1 µg/mL. In the case of `Clc1cccc(Nc2nc3nonc3nc2NC2CCCCC2)c1`, the minimal effective concentration in the data set with Escherichia coli [3] was 1 µg/mL.

As to `Clc1cccc(Nc2nc3nonc3nc2NCC2CC2)c1`, the minimal effective concentration with Escherichia coli [3] came to 1 µg/mL. Take `CCCCCCCCCCCCNc1nc2nonc2nc1Nc1cccc(Cl)c1`: the minimal effective concentration with Escherichia coli [3] was over 16 µg/mL. For `CCCCCCCCCCNc1nc2nonc2nc1Nc1cccc(Cl)c1`, the minimal effective concentration with Escherichia coli [3] came out at 2 µg/mL.

Take `CC(C)CCNc1nc2nonc2nc1Nc1cccc(Cl)c1`: in the data set with Escherichia coli [3], the minimal effective concentration came to 1 µg/mL. Take `Clc1cccc(Nc2nc3nonc3nc2NCCc2ccccc2)c1`: in data set [1], the selectivity ratio was 1.7. In the data set on Escherichia coli [2], this molecule displayed an MIC of over 64 µg/mL. Moreover, in the data set on Escherichia coli [3], the minimal effective concentration stood at 0.5 µg/mL. The molecule also came in with a concentration for 50% growth inhibition (GI50) in data set [4] of 0.83 µg/mL (≈ 2.26 µM). On to `CCCCCCNc1nc2nonc2nc1Nc1cccc(Cl)c1`, for which the minimal effective concentration in the data set on Escherichia coli [3] amounted to 1 µg/mL. Regarding `CCCCCNc1nc2nonc2nc1Nc1cccc(Cl)c1`, the selectivity ratio in data set [1] worked out at 4.3. This molecule showed an MIC against Escherichia coli [2] of over 64 µg/mL. The minimal effective concentration with Escherichia coli [3] was found to be 0.5 µg/mL. The molecule also gave a 50% growth inhibitory concentration (GI50) in data set [4] of 2.1 µg/mL (≈ 6.31 µM). `Fc1cccc(CNc2nc3nonc3nc2Nc2cccc(Cl)c2)c1`: the minimal effective concentration in the data set with Escherichia coli [3] worked out at 1 µg/mL.

On to `CCCCCCCNc1nc2nonc2nc1NCCCCCCC`, for which the selectivity ratio in data set [1] is 1.3. This molecule also yielded a minimum inhibitory concentration (MIC) with Escherichia coli [2] of over 64 µg/mL. Besides, the minimal effective concentration in the data set on Escherichia coli [3] turned out to be 0.5 µg/mL. Moreover, the GI50 in data set [4] came out at 0.65 µg/mL (≈ 1.87 µM).

In the case of `FC(F)(F)c1nc(NCCCNc2nc3nonc3nc2NCCCNc2ccc(Cl)c(C(F)(F)F)n2)ccc1Cl`, in data set [1], the selectivity ratio turned out to be 10. The MIC against Escherichia coli [2] is over 64 µg/mL. Also, the minimal effective concentration in the data set with Escherichia coli [3] amounted to 0.25 µg/mL. The molecule also showed a GI50 in data set [4] of 2.6 µg/mL (≈ 4.16 µM). Regarding `CCCNc1nc2nonc2nc1NCCC`, the minimal effective concentration in the data set on Escherichia coli [3] was over 16 µg/mL. For `CC(C)CCNc1nc2nonc2nc1NCCC(C)C`, in the data set on Escherichia coli [3], the minimal effective concentration was 2 µg/mL. In the case of `CC(C)(C)Nc1nc2nonc2nc1Nc1cccc(Cl)c1`, in the data set on Escherichia coli [3], the minimal effective concentration stood at 2 µg/mL. On to `C1CCC(Nc2nc3nonc3nc2NC2CCCC2)C1`, for which the minimal effective concentration with Escherichia coli [3] was 8 µg/mL. Regarding `Clc1ccc(CNc2nc3nonc3nc2Nc2cccc(Cl)c2)cc1`, the selectivity ratio in data set [1] was found to be 19. This molecule also registered a minimal inhibitory concentration (MIC) with Escherichia coli [2] of over 64 µg/mL. Further, the minimal effective concentration in the data set on Escherichia coli [3] is 0.25 µg/mL. In addition, the GI50 in data set [4] was determined as 4.9 µg/mL (≈ 12.7 µM). Turning to `CCCCNc1nc2nonc2nc1Nc1cccc(Cl)c1`, the selectivity ratio in data set [1] was found to be 11. The same molecule returned an MIC in the data set with Escherichia coli [2] of over 64 µg/mL. Besides, the minimal effective concentration in the data set with Escherichia coli [3] was found to be 0.5 µg/mL. Also, the 50% growth inhibitory concentration (GI50) in data set [4] worked out at 5.7 µg/mL (≈ 17.9 µM). Regarding `CCCCCCCNc1nc2nonc2nc1Nc1cccc(Cl)c1`, the selectivity ratio in data set [1] was 6.6. Moreover, the minimal inhibitory concentration (MIC) against Escherichia coli [2] is over 64 µg/mL. Moreover, the minimal effective concentration in the data set on Escherichia coli [3] was 0.5 µg/mL. For the same molecule, the GI50 in data set [4] is 3.3 µg/mL (≈ 9.15 µM). As to `FC(F)(F)Oc1cccc(CNc2nc3nonc3nc2Nc2cccc(Cl)c2)c1`, in the data set with Escherichia coli [3], the minimal effective concentration was 1 µg/mL. Turning to `FC(F)CNc1nc2nonc2nc1Nc1cccc(Cl)c1`, in the data set on Escherichia coli [3], the minimal effective concentration came out at 2 µg/mL. For `Clc1cccc(Nc2nc3nonc3nc2NC2CCCC2)c1`, in the data set with Escherichia coli [3], the minimal effective concentration came out at 1 µg/mL. The same measure, in the same setting: for `Clc1cccc(Nc2nc3nonc3nc2NCC2CCC2)c1` the value was 1 µg/mL; for `Fc1cccc(CNc2nc3nonc3nc2NCc2cccc(F)c2)c1`, over 16 µg/mL. For the molecule `Clc1cccc(CNc2nc3nonc3nc2NCc2cccc(Cl)c2)c1`, the selectivity ratio in data set [1] was 3.2. In the data set on Escherichia coli [2], the minimal inhibitory concentration (MIC) was over 64 µg/mL. The minimal effective concentration in the data set with Escherichia coli [3] was found to be 0.5 µg/mL. This molecule also came in with a GI50 in data set [4] of 1.6 µg/mL (≈ 3.99 µM).

On to `CCCCCCCCNc1nc2nonc2nc1NCCCCCCCC`, for which the minimal effective concentration in the data set with Escherichia coli [3] came out at 4 µg/mL.

Consider `CNc1nc2nonc2nc1Nc1cccc(Cl)c1`, for which, in the data set on Escherichia coli [3], the minimal effective concentration came to 8 µg/mL. Consider `CCCCCCCCNc1nc2nonc2nc1Nc1cccc(Cl)c1`, for which the minimal effective concentration in the data set on Escherichia coli [3] was 1 µg/mL. Still for that read-out and setting: the same measure for `FC(F)(F)c1cccc(CNc2nc3nonc3nc2NCc2cccc(C(F)(F)F)c2)c1`: over 16 µg/mL.

As to `CC(C)(C)Nc1nc2nonc2nc1NC(C)(C)C`, the minimal effective concentration in the data set with Escherichia coli [3] worked out at 8 µg/mL. Same read-out and setting: for `CCCNc1nc2nonc2nc1Nc1cccc(Cl)c1` the value was 1 µg/mL. In the case of `FC(F)(F)Oc1cccc(CNc2nc3nonc3nc2NCc2cccc(OC(F)(F)F)c2)c1`, the selectivity ratio in data set [1] was determined as 18. Besides, in the data set on Escherichia coli [2], the MIC is over 64 µg/mL. Also, the minimal effective concentration in the data set with Escherichia coli [3] worked out at 0.125 µg/mL. Moreover, in data set [4], the GI50 came to 2.3 µg/mL (≈ 4.6 µM).

Regarding `Clc1cccc(Nc2nc3nonc3nc2NCCc2c[nH]c3ccc(Cl)cc23)c1`, the minimal effective concentration with Escherichia coli [3] came out at 1 µg/mL. Regarding `Nc1nc2nonc2nc1Nc1cccc(Cl)c1`, in the data set on Escherichia coli [3], the minimal effective concentration was 4 µg/mL.

As for `FC1(F)CC(CNc2nc3nonc3nc2Nc2cccc(Cl)c2)C1`, the minimal effective concentration in the data set on Escherichia coli [3] was found to be 1 µg/mL. `Clc1cccc(Nc2nc3nonc3nc2NCC2COC2)c1`: the minimal effective concentration in the data set with Escherichia coli [3] was over 16 µg/mL.
